#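 Following 48 hours of exposure in 96-well plates, responses at five concentrations were used to interpolate endpoints linearly. The concentration for 50% growth inhibition is given as GI50.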 Active and inactive are the calls of the source. Rule as the data show it: active = GI50 up to about 1.1 µM and inactive = higher.
# Key:
# Assay in all cases: NCI anticancer screen, dose series, 48 h
# [1] = system: UACC-257
# [2] = system: SNB-19
# [3] = system: SK-OV-3
# [4] = system: NCI-H226
# [5] = system: SF-295
# [6] = system: DU-145
# [7] = system: IGROV-1
# [8] = system: MDA-N
# [9] = system: A498
# [10] = system: HL-60
# [11] = system: U-251
# [12] = system: T47D
# [13] = system: HCT-15
# [14] = system: Malme-3M
# [15] = system: SK-MEL-5
# [16] = system: TK-10
# [17] = system: HCC 2998
# [18] = system: UACC-62
# [19] = system: SN12C
# [20] = system: SF-539
# [21] = system: K562
# [22] = system: MDA-MB-231
# [23] = system: CAKI-1
# [24] = system: PC-3
# [25] = system: HT-29
# [26] = system: EKVX
# [27] = system: UO-31
# [28] = system: A549
# [29] = system: KM12
# [30] = system: NCI-H522
# [31] = system: HOP-92
# [32] = system: MOLT-4
# [33] = system: SK-MEL-28
# [34] = system: HCT-116
# [35] = system: RXF 393
# [36] = system: CCRF-CEM
# [37] = system: HOP-62
# [38] = system: OVCAR-5
# [39] = system: SNB-75
# [40] = system: MCF7
# [41] = system: RPMI-8226
# [42] = system: 786-0
# [43] = system: M14
# [44] = system: COLO 205
# [45] = system: LOX IMVI
# [46] = system: OVCAR-4
# [47] = system: NCI/ADR-RES
# [48] = system: SK-MEL-2
# [49] = system: OVCAR-3
# [50] = system: OVCAR-8
# [51] = system: NCI-H23
# [52] = system: ACHN
# [53] = system: MDA-MB-435
# [54] = system: SW-620
# [55] = system: SF-268
# [56] = system: NCI-H460
# [57] = system: Hs-578T
structure (smiles),measurement,setting,value
NNC(=O)Nc1cccnc1,GI50,[1],> 100 µM (inactive)
same,GI50,[2],> 100 µM (inactive)
same,GI50,[3],> 100 µM (inactive)
same,GI50,[4],> 100 µM (inactive)
same,GI50,[5],> 100 µM (inactive)
same,GI50,[6],> 100 µM (inactive)
same,GI50,[7],> 100 µM (inactive)
same,GI50,[8],> 100 µM (inactive)
same,GI50,[9],> 100 µM (inactive)
same,GI50,[10],> 100 µM (inactive)
same,GI50,[11],> 100 µM (inactive)
same,GI50,[12],> 100 µM (inactive)
same,GI50,[13],> 100 µM
same,GI50,[14],> 100 µM (inactive)
same,GI50,[15],> 100 µM (inactive)
same,GI50,[16],> 100 µM (inactive)
same,GI50,[17],> 100 µM (inactive)
same,GI50,[18],> 100 µM (inactive)
same,GI50,[19],> 100 µM (inactive)
same,GI50,[20],> 100 µM (inactive)
same,GI50,[21],> 100 µM (inactive)
same,GI50,[22],> 100 µM (inactive)
same,GI50,[23],> 100 µM (inactive)
same,GI50,[24],> 100 µM (inactive)
same,GI50,[25],> 100 µM (inactive)
same,GI50,[26],> 100 µM (inactive)
same,GI50,[27],> 100 µM (inactive)
same,GI50,[28],> 100 µM (inactive)
same,GI50,[29],> 100 µM (inactive)
same,GI50,[30],> 100 µM (inactive)
same,GI50,[31],> 100 µM (inactive)
same,GI50,[32],> 10 µM (inactive)
same,GI50,[33],> 100 µM (inactive)
same,GI50,[34],> 100 µM (inactive)
same,GI50,[35],> 100 µM (inactive)
same,GI50,[36],> 100 µM (inactive)
same,GI50,[37],> 100 µM (inactive)
same,GI50,[38],> 100 µM (inactive)
same,GI50,[39],> 100 µM (inactive)
same,GI50,[40],> 100 µM (inactive)
same,GI50,[41],> 100 µM (inactive)
same,GI50,[42],> 100 µM (inactive)
same,GI50,[43],> 100 µM (inactive)
same,GI50,[44],> 100 µM (inactive)
same,GI50,[45],> 100 µM (inactive)
same,GI50,[46],> 100 µM (inactive)
same,GI50,[47],> 100 µM (inactive)
same,GI50,[48],> 100 µM (inactive)
same,GI50,[49],> 100 µM (inactive)
same,GI50,[50],> 100 µM (inactive)
same,GI50,[51],> 100 µM (inactive)
same,GI50,[52],> 100 µM (inactive)
same,GI50,[53],> 100 µM (inactive)
same,GI50,[54],> 100 µM (inactive)
COc1cc2c(cc1OCCOS(C)(=O)=O)N=C[C@@H]1CCCN1C2=O,GI50,[2],45.3 µM (inactive)
same,GI50,[3],> 100 µM (inactive)
same,GI50,[5],23.3 µM (inactive)
same,GI50,[6],27.3 µM (inactive)
same,GI50,[7],27.7 µM (inactive)
same,GI50,[55],70.1 µM (inactive)
same,GI50,[10],26.9 µM (inactive)
same,GI50,[12],40.7 µM (inactive)
same,GI50,[56],97.7 µM (inactive)
same,GI50,[17],30.7 µM (inactive)
same,GI50,[19],26 µM (inactive)
same,GI50,[25],36.8 µM (inactive)
same,GI50,[26],32.7 µM (inactive)
same,GI50,[57],27.5 µM (inactive)
same,GI50,[28],> 100 µM (inactive)
same,GI50,[29],33.9 µM (inactive)
same,GI50,[31],21.4 µM (inactive)
same,GI50,[32],21.9 µM (inactive)
same,GI50,[33],23.8 µM (inactive)
same,GI50,[35],29.7 µM (inactive)
same,GI50,[39],54.1 µM (inactive)
same,GI50,[40],39 µM (inactive)
same,GI50,[44],24.1 µM (inactive)
same,GI50,[46],22.2 µM (inactive)
same,GI50,[48],29.4 µM (inactive)
same,GI50,[50],32.1 µM (inactive)
same,GI50,[53],20.3 µM (inactive)
O=C(c1ccc(Cl)c(Cl)c1)N1CCN(C(=O)c2ccc(Cl)c(Cl)c2)C1=S,GI50,[41],1.83 µM (inactive)
CCCNC1=Nc2ccccc2[C@@H]2N(C)c3ccccc3C(C)C[C@]12C (stereo partly specified),GI50,[1],12.9 µM (inactive)
same,GI50,[2],18.6 µM (inactive)
same,GI50,[4],34 µM (inactive)
same,GI50,[5],16.3 µM (inactive)
same,GI50,[6],32.4 µM (inactive)
same,GI50,[7],17.8 µM (inactive)
same,GI50,[8],20.5 µM (inactive)
same,GI50,[55],21.6 µM (inactive)
same,GI50,[9],14.4 µM (inactive)
same,GI50,[10],33.3 µM (inactive)
same,GI50,[12],20 µM (inactive)
same,GI50,[13],23.6 µM
same,GI50,[56],24.5 µM (inactive)
same,GI50,[14],16.6 µM (inactive)
same,GI50,[15],15.6 µM (inactive)
same,GI50,[16],16 µM (inactive)
same,GI50,[17],11.1 µM (inactive)
same,GI50,[18],16.1 µM (inactive)
same,GI50,[19],37.1 µM (inactive)
same,GI50,[20],16.4 µM (inactive)
same,GI50,[21],20 µM (inactive)
same,GI50,[22],15.8 µM (inactive)
same,GI50,[23],26.3 µM (inactive)
same,GI50,[24],16 µM (inactive)
same,GI50,[25],13.2 µM (inactive)
same,GI50,[26],32.4 µM (inactive)
same,GI50,[57],19.1 µM (inactive)
same,GI50,[27],27.9 µM (inactive)
same,GI50,[28],28.8 µM (inactive)
same,GI50,[29],20.3 µM (inactive)
same,GI50,[30],18.2 µM (inactive)
same,GI50,[32],18.1 µM (inactive)
same,GI50,[33],18.3 µM (inactive)
same,GI50,[34],14.8 µM (inactive)
same,GI50,[35],19.7 µM (inactive)
same,GI50,[36],26 µM (inactive)
same,GI50,[37],16.4 µM (inactive)
same,GI50,[38],15.1 µM (inactive)
same,GI50,[39],15.7 µM (inactive)
same,GI50,[40],21.3 µM (inactive)
same,GI50,[41],18.7 µM (inactive)
same,GI50,[42],18.5 µM (inactive)
same,GI50,[43],17.7 µM (inactive)
same,GI50,[44],17.9 µM (inactive)
same,GI50,[45],13.3 µM (inactive)
same,GI50,[46],5.7 µM (inactive)
same,GI50,[47],22.4 µM (inactive)
same,GI50,[48],13.2 µM (inactive)
same,GI50,[49],19.2 µM (inactive)
same,GI50,[50],14.7 µM (inactive)
same,GI50,[51],18.2 µM (inactive)
same,GI50,[52],23.8 µM (inactive)
same,GI50,[53],17.8 µM (inactive)
same,GI50,[54],16.5 µM (inactive)

# — ChEMBL document CHEMBL1201862, “PubChem BioAssay data set” (2004)
